The results in this text go back to PubChem BioAssay (NCI).

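These data come from cells grown in 96-well plates and exposed to compound for 48 hours at five concentrations. Here, GI50 denotes the concentration required for 50% inhibition of growth. The concentration for full growth arrest is given as TGI.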

Some test systems named below: A549 NSCLC; HT29 colon; NCI-H460 lung; RPMI-8226 leukemia; RXF 393 renal; SF-539 CNS; SK-MEL-5 melanoma; UACC-257 melanoma; K-562 leukemia; SNB-19 CNS.
Experiment in all cases: NCI-60 cell line screen, 48 h

Turning to `O=C1C(c2ccccc2)=C(c2ccccc2)C(c2ccccc2)/C1=C1\C(=O)C(c2ccccc2)=C(c2ccccc2)C1c1ccccc1` (stereo unspecified), the TGI with A549 NSCLC, in the test with HT29 colon, in the test on NCI-H460 lung, in the test with RPMI-8226 leukemia, in the test on RXF 393 renal and with SF-539 CNS was over 100 µM throughout. Also, the TGI in the test on SK-MEL-5 melanoma and with UACC-257 melanoma was over 100 µM each time.
`CC(C)(C)c1ccccc1NS(=O)(=O)c1ccccc1`: the TGI with A549 NSCLC, in the test on HT29 colon, in the test on K-562 leukemia, with NCI-H460 lung, in the test with RPMI-8226 leukemia and in the test on RXF 393 renal was over 100 µM throughout. The TGI in the test on SF-539 CNS, with SK-MEL-5 melanoma and in the test with UACC-257 melanoma was over 100 µM each time.
On to `CC(=O)O[C@H]1CC[C@@]2(C)C(=CC[C@@H]3C2CC[C@]2(C)Nc4oncc4CC32)C1` (stereo partly specified), for which the TGI in the test with A549 NSCLC is 83.6 µM; with HT29 colon it was over 100 µM; in the test on K-562 leukemia it was 21.1 µM; in the test with NCI-H460 lung, 48.8 µM; with RPMI-8226 leukemia, 43.8 µM; with RXF 393 renal it was over 100 µM. In addition, the TGI in the test on SF-539 CNS is over 100 µM; in the test on SK-MEL-5 melanoma, 33.2 µM; with UACC-257 melanoma it was over 100 µM.
Regarding `CCCCCCCCCCCCC(Br)C(=O)SCCNC(=O)CCNC(=O)[C@@H](O)C(C)(C)COP(=O)(O)OP(=O)(O)OCC1OC(n2cnc3c(N)ncnc32)C(O)C1OP(=O)(O)O` (stereo partly specified), the TGI in the test with A549 NSCLC, in the test with HT29 colon, in the test on NCI-H460 lung, in the test with RXF 393 renal, with SF-539 CNS and in the test on SK-MEL-5 melanoma was over 56.5 µM throughout. Besides, the TGI is over 56.5 µM in the test on SNB-19 CNS and 40.4 µM with UACC-257 melanoma.
As for `CCCNc1nc(-c2ccc(OC)cc2)nc2ccccc12`, the GI50 in the test on A549 NSCLC is 11.1 µM; in the test on K-562 leukemia it was over 100 µM; with NCI-H460 lung, 10.5 µM; in the test with RPMI-8226 leukemia, 3.96 µM; in the test with RXF 393 renal it was 15.4 µM; in the test with SK-MEL-5 melanoma, 12.5 µM. Further, the GI50 with SNB-19 CNS was 34.8 µM. The TGI is 49.6 µM with A549 NSCLC; over 100 µM in the test with K-562 leukemia; 44 µM with NCI-H460 lung; 22.6 µM in the test with RPMI-8226 leukemia; 35.5 µM in the test with RXF 393 renal; 27.7 µM in the test with SK-MEL-5 melanoma. Further, the TGI in the test with SNB-19 CNS is over 100 µM.
As for `CC(=O)Nc1ccc(C(=O)N[C@@H]2C(=O)N3[C@@H]2SC(C)(C)[C@@H]3C(=O)O)cn1`, the TGI with A549 NSCLC, in the test with HT29 colon, in the test on K-562 leukemia, in the test with NCI-H460 lung, in the test with RPMI-8226 leukemia and in the test with RXF 393 renal was over 100 µM each time. Also, the TGI with SK-MEL-5 melanoma, in the test with SNB-19 CNS and with UACC-257 melanoma was over 100 µM throughout.
As to `N#C/C(=C/N1CCN(C(=O)c2ccco2)C1=S)C(N)=O`, the GI50 is 34.5 µM with A549 NSCLC; 24.1 µM in the test with HT29 colon; 9.13 µM in the test on K-562 leukemia; 3.99 µM in the test with NCI-H460 lung; 12.4 µM in the test with RPMI-8226 leukemia; 19.2 µM in the test with RXF 393 renal. Further, the GI50 in the test with SK-MEL-5 melanoma was 16.5 µM; in the test on SNB-19 CNS, 36.4 µM; with UACC-257 melanoma, 23.3 µM. Moreover, the TGI is over 100 µM in the test on A549 NSCLC; over 100 µM in the test on HT29 colon; over 100 µM in the test with K-562 leukemia; 50.7 µM in the test on NCI-H460 lung; over 100 µM with RPMI-8226 leukemia; 82.2 µM in the test with RXF 393 renal. Besides, the results for the TGI in the test with SK-MEL-5 melanoma, in the test with SNB-19 CNS and with UACC-257 melanoma were 38.9 µM, over 100 µM and 50.8 µM, respectively.
Consider `Cc1cc(S(N)(=O)=O)c(S/C(=N\NS(=O)(=O)c2ccc(Cl)cc2)c2ccc(Cl)cc2)cc1Cl`, for which the GI50 is 49.1 µM with A549 NSCLC; 45.3 µM in the test with K-562 leukemia; over 100 µM with NCI-H460 lung; 22 µM in the test with RPMI-8226 leukemia; over 100 µM with RXF 393 renal; over 100 µM in the test on SF-539 CNS. Besides, the GI50 with SK-MEL-5 melanoma, in the test with SNB-19 CNS and with UACC-257 melanoma was over 100 µM each time. The TGI with A549 NSCLC, with K-562 leukemia, in the test with NCI-H460 lung, in the test with RPMI-8226 leukemia, with RXF 393 renal and with SF-539 CNS was over 100 µM in each case. In addition, the TGI with SK-MEL-5 melanoma, in the test with SNB-19 CNS and in the test on UACC-257 melanoma was over 100 µM in each case.
Regarding `NS(=O)(=O)c1ccc(-n2nc(-c3ccc(Cl)cc3)cc2C2=CC(=O)C=CC2=O)cc1`, the GI50 in the test with A549 NSCLC was 30 µM; with K-562 leukemia, 19.4 µM; in the test with NCI-H460 lung, 24.3 µM; in the test with RPMI-8226 leukemia, 6.86 µM; in the test on RXF 393 renal it was 21.9 µM; in the test with SF-539 CNS it was 21.5 µM. Besides, the GI50 in the test with SK-MEL-5 melanoma was 18.2 µM; in the test on UACC-257 melanoma it was 19.9 µM. For the same compound, the TGI is over 100 µM in the test on A549 NSCLC; 74.1 µM in the test on K-562 leukemia; 57.4 µM in the test with NCI-H460 lung; 33.4 µM in the test on RPMI-8226 leukemia; 46.7 µM in the test with RXF 393 renal; 45.4 µM with SF-539 CNS. Also, the results for the TGI in the test on SK-MEL-5 melanoma and with UACC-257 melanoma were 43.5 µM and 42.9 µM, respectively.
Turning to `COc1ccc(Cc2ccccc2C(=O)O)c2ccccc12`, the TGI was over 100 µM in the test with A549 NSCLC; over 100 µM in the test with HT29 colon; over 100 µM with K-562 leukemia; 38.9 µM in the test with NCI-H460 lung; over 100 µM in the test with RPMI-8226 leukemia; over 100 µM in the test with RXF 393 renal. In addition, the values for the TGI in the test on SK-MEL-5 melanoma, in the test on SNB-19 CNS and in the test on UACC-257 melanoma were 32.9 µM, over 100 µM and 48.3 µM, respectively.
Turning to `CC1=C(C(=O)Nc2ccc(F)c(Cl)c2)C(c2cccc(Cl)c2)NC(=O)N1` (stereo unspecified), the GI50 in the test on A549 NSCLC was 24.7 µM; in the test on HT29 colon, 14.8 µM; in the test on NCI-H460 lung it was 16.4 µM; with RPMI-8226 leukemia, 16.3 µM; in the test with RXF 393 renal it was 15 µM; in the test with SF-539 CNS it was 19.6 µM. The GI50 in the test on SK-MEL-5 melanoma is 13.6 µM; in the test on SNB-19 CNS it was 18.1 µM; in the test on UACC-257 melanoma it was 21.4 µM. In addition, the TGI in the test with A549 NSCLC was 85.1 µM; in the test on HT29 colon, 30.1 µM; in the test on NCI-H460 lung, 34 µM; with RPMI-8226 leukemia, 46.9 µM; in the test with RXF 393 renal it was 31.5 µM; in the test on SF-539 CNS, 37.2 µM. For the same compound, the TGI in the test with SK-MEL-5 melanoma was determined as 26.9 µM; in the test on SNB-19 CNS, 39 µM; in the test with UACC-257 melanoma it was 56.2 µM.
